Measured values from ChEMBL document CHEMBL3137667, “[Drug-induced liver injury; fourteenth updated edition of the bibliographic database of liver injuries and related drugs]” (Gastroenterol Clin Biol, 2004).
*1 amine or outer side, *2 acyl side, *3 side chain or, on linkers, in order; H or OH if unused. Where a SMILES comes first, the peptide text is derived from it. Bridges are numbered along the chain shown (N, C = ends). [ ]: non-standard residue; d: D form. The star is where a group is joined. ξ: configuration not given here. X2 = N=C1NCCC([C@H](N[*:1])C(=O)[*:2])N1; ΔAla(Z-3-ureido) = NC(=O)N/C=C(\N)C(=O)O; ξβ3hOrn = NCCCC(N)CC(=O)*; Dap = NC[C@H](N)C(=O)O

Experiments:
[1] = human
[2] = human; remark: listed apart in the source
[3] = human; remark: listed apart in the source
[4] = human; remark: listed apart in the source
[5] = human; remark: listed apart in the source
[6] = human; remark: listed apart in the source
[7] = human, serum
[8] = human, serum, 4383 h
[9] = human; remark: listed apart in the source
[10] = human; remark: listed apart in the source
[11] = Highest frequency of moderate liver toxicity observed during clinical trials, expressed as a percentage. [column '% BIOL' in source]; conditions: human
[12] = human, serum; remark: listed apart in the source
[13] = Highest frequency of acute liver toxicity observed during clinical trials, expressed as a percentage. [column '% AIGUE' in source]; conditions: human
[14] = human; remark: listed apart in the source
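Wherever Hepatotoxicity (association with vascular disease) is given: count of indexed literature references reporting vascular liver injury in humans, e.g. peliosis hepatitis, hepatic veno-occlusive disease or Budd-Chiari syndrome.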
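Wherever Hepatotoxicity (benign tumour) is given: value is a count of indexed literature references citing a benign tumour confirmed by histopathology.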
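Wherever Hepatotoxicity (choleostasis) is given: human cholestatic liver injury, shown by histopathology or by peak ALT or AST elevation over alkaline phosphatase ratio below 2, value counts indexed literature reports.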
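Wherever Hepatotoxicity (chronic liver disease) is given: chronic liver injury confirmed by histopathology or persistently raised serum aminotransferase activity beyond 6 months, value given as the count of indexed literature references.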
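Wherever Hepatotoxicity (cirrhosis) is given: value is a count of indexed literature references reporting cirrhosis confirmed by histopathology.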
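Wherever Hepatotoxicity (cytolytic) is given: human cytolytic liver injury, shown by histopathology or by a ratio above 5 of peak ALT or AST elevation to alkaline phosphatase elevation, value counts indexed references.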
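Wherever Hepatotoxicity (granulomatous hepatitis) is given: value is a count of indexed literature references reporting granulomatous liver disease confirmed by histopathology.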
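Wherever Hepatotoxicity (malignant tumour) is given: malignant tumour confirmed by histopathology, value gives the count of indexed literature references reporting it.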
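Wherever Hepatotoxicity (severe hepatitis) is given: human clinical data: severe hepatitis, meaning potentially life-threatening liver failure or clinically observed cases, the value counts how many indexed literature references report it.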
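Wherever Hepatotoxicity (steatosis) is given: steatosis confirmed by histopathology, value is the count of indexed references.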

Nc1nc(-c2ccccc2)c(Br)c(=O)[nH]1 [BROPIRIMINE]
Hepatotoxicity (benign tumour) [1]: 0
Hepatotoxicity (malignant tumour) [2]: 0
Hepatotoxicity (cytolytic) ([3]; Liver): 0
Hepatotoxicity (choleostasis) ([4]; Liver): 0
Hepatotoxicity (steatosis) [5]: 0
Hepatotoxicity (granulomatous hepatitis) ([6]; Liver): 0
Hepatotoxicity (acute) [7]: 0
Hepatotoxicity (chronic liver disease) [8]: 0
Hepatotoxicity (severe hepatitis) ([9]; Liver): 0
Hepatotoxicity (cirrhosis) [10]: 0
Hepatotoxicity (moderate) ([11]; Liver): 3.1%
Hepatotoxicity (moderate) [12]: 1
Hepatotoxicity (acute) ([13]; Liver): 0%
Hepatotoxicity (association with vascular disease) [14]: 0

CCC/C=C/C=C/C(=O)O[C@H]1/C(=C/C(=O)OC)C[C@H]2C[C@H]([C@@H](C)O)OC(=O)C[C@H](O)C[C@@H]3C[C@H](OC(C)=O)C(C)(C)[C@](O)(C[C@@H]4C/C(=C/C(=O)OC)C[C@H](/C=C/C(C)(C)[C@]1(O)O2)O4)O3 [BRYOSTATIN 1]
Hepatotoxicity (benign tumour) [1]: 0
Hepatotoxicity (malignant tumour) [2]: 0
Hepatotoxicity (cytolytic) [3]: 0
Hepatotoxicity (choleostasis) [4]: 1
Hepatotoxicity (steatosis) [5]: 0
Hepatotoxicity (granulomatous hepatitis) [6]: 0
Hepatotoxicity (acute) [7]: 1
Hepatotoxicity (chronic liver disease) [8]: 0
Hepatotoxicity (severe hepatitis) [9]: 0
Hepatotoxicity (cirrhosis) [10]: 0
Hepatotoxicity (moderate) [11]: 16.7%
Hepatotoxicity (moderate) [12]: 2
Hepatotoxicity (acute) [13]: 8.3%
Hepatotoxicity (association with vascular disease) [14]: 0

CC(C)C[C@H](NC(=O)[C@H](CCCCN)NC(=O)CNC(=O)[C@H](CC(C)C)NC(=O)[C@@H](NC(=O)[C@@H]1CSSC[C@H](N)C(=O)N[C@@H](CO)C(=O)N[C@@H](CC(N)=O)C(=O)N[C@@H](CC(C)C)C(=O)N[C@@H](CO)C(=O)N[C@@H]([C@@H](C)O)C(=O)N1)C(C)C)C(=O)N[C@@H](CO)C(=O)N[C@@H](CCC(N)=O)C(=O)N[C@@H](CCC(=O)O)C(=O)N[C@@H](CC(C)C)C(=O)N[C@@H](Cc1c[nH]cn1)C(=O)N[C@@H](CCCCN)C(=O)N[C@@H](CC(C)C)C(=O)N[C@@H](CCC(N)=O)C(=O)N[C@H](C(=O)N[C@@H](Cc1ccc(O)cc1)C(=O)N1CCC[C@H]1C(=O)N[C@@H](CCCNC(=N)N)C(=O)N[C@H](C(=O)N[C@@H](CC(N)=O)C(=O)N[C@H](C(=O)NCC(=O)N[C@@H](CO)C(=O)NCC(=O)N[C@H](C(=O)N1CCC[C@H]1C(N)=O)[C@@H](C)O)[C@@H](C)O)[C@@H](C)O)[C@@H](C)O [CALCITONIN SALMON]
Hepatotoxicity (benign tumour) [1]: 0
Hepatotoxicity (malignant tumour) [2]: 0
Hepatotoxicity (cytolytic) [3]: 0
Hepatotoxicity (choleostasis) [4]: 0
Hepatotoxicity (steatosis) [5]: 0
Hepatotoxicity (granulomatous hepatitis) [6]: 0
Hepatotoxicity (acute) [7]: 0
Hepatotoxicity (chronic liver disease) [8]: 0
Hepatotoxicity (severe hepatitis) [9]: 0
Hepatotoxicity (cirrhosis) [10]: 0
Hepatotoxicity (moderate) [11]: 3.1%
Hepatotoxicity (moderate) [12]: 1
Hepatotoxicity (acute) [13]: 0%
Hepatotoxicity (association with vascular disease) [14]: 0

CCCCCOC(=O)Nc1nc(=O)n([C@@H]2O[C@H](C)[C@@H](O)[C@H]2O)cc1F [CAPECITABINE]
Hepatotoxicity (benign tumour) [1]: 0
Hepatotoxicity (malignant tumour) [2]: 0
Hepatotoxicity (cytolytic) [3]: 0
Hepatotoxicity (choleostasis) [4]: 0
Hepatotoxicity (steatosis) [5]: 0
Hepatotoxicity (granulomatous hepatitis) [6]: 0
Hepatotoxicity (acute) [7]: 0
Hepatotoxicity (chronic liver disease) [8]: 0
Hepatotoxicity (severe hepatitis) [9]: 0
Hepatotoxicity (cirrhosis) [10]: 0
Hepatotoxicity (moderate) [11]: 61.8%
Hepatotoxicity (moderate) [12]: 1
Hepatotoxicity (acute) [13]: 0%
Hepatotoxicity (association with vascular disease) [14]: 0

C[C@@H]1NC(=O)[C@@H](N)CNC(=O)[C@H](C2CCNC(=N)N2)NC(=O)/C(=C/NC(N)=O)NC(=O)[C@H](CNC(=O)CC(N)CCCN)NC1=O.N=C1NCCC([C@@H]2NC(=O)/C(=C/NC(N)=O)NC(=O)[C@H](CNC(=O)CC(N)CCCN)NC(=O)[C@H](CO)NC(=O)[C@@H](N)CNC2=O)N1 (stereo partly drawn) [CAPREOMYCIN] (H-[Dap]S[Dap](ξβ3hOrn)[ΔAla(Z-3-ureido)][X2]; lactam 1-C)
Hepatotoxicity (benign tumour) [1]: 0
Hepatotoxicity (malignant tumour) [2]: 0
Hepatotoxicity (cytolytic) [3]: 0
Hepatotoxicity (choleostasis) [4]: 0
Hepatotoxicity (steatosis) [5]: 0
Hepatotoxicity (granulomatous hepatitis) [6]: 0
Hepatotoxicity (acute) [7]: 0
Hepatotoxicity (chronic liver disease) [8]: 0
Hepatotoxicity (severe hepatitis) [9]: 0
Hepatotoxicity (cirrhosis) [10]: 0
Hepatotoxicity (moderate) [11]: 0%
Hepatotoxicity (moderate) [12]: 3
Hepatotoxicity (acute) [13]: 0%
Hepatotoxicity (association with vascular disease) [14]: 0

CC1(C)[C@@H](OC(=O)CCC(=O)O)CC[C@]2(C)[C@H]3C(=O)C=C4[C@@H]5C[C@@](C)(C(=O)O)CC[C@]5(C)CC[C@@]4(C)[C@]3(C)CC[C@@H]12 [CARBENOXOLONE]
Hepatotoxicity (benign tumour) [1]: 0
Hepatotoxicity (malignant tumour) [2]: 0
Hepatotoxicity (cytolytic) [3]: 0
Hepatotoxicity (choleostasis) [4]: 0
Hepatotoxicity (steatosis) [5]: 0
Hepatotoxicity (granulomatous hepatitis) [6]: 0
Hepatotoxicity (acute) [7]: 0
Hepatotoxicity (chronic liver disease) [8]: 0
Hepatotoxicity (severe hepatitis) [9]: 0
Hepatotoxicity (cirrhosis) [10]: 0
Hepatotoxicity (moderate) [11]: 0%
Hepatotoxicity (moderate) [12]: 2
Hepatotoxicity (acute) [13]: 0%
Hepatotoxicity (association with vascular disease) [14]: 0

C[C@@](Cc1ccc(O)c(O)c1)(NN)C(=O)O.O [CARBIDOPA]
Hepatotoxicity (benign tumour) [1]: 0
Hepatotoxicity (malignant tumour) [2]: 0
Hepatotoxicity (cytolytic) [3]: 0
Hepatotoxicity (choleostasis) [4]: 1
Hepatotoxicity (steatosis) [5]: 1
Hepatotoxicity (granulomatous hepatitis) [6]: 0
Hepatotoxicity (acute) [7]: 1
Hepatotoxicity (chronic liver disease) [8]: 0
Hepatotoxicity (severe hepatitis) [9]: 0
Hepatotoxicity (cirrhosis) [10]: 0
Hepatotoxicity (moderate) [11]: 0%
Hepatotoxicity (moderate) [12]: 0
Hepatotoxicity (acute) [13]: 0%
Hepatotoxicity (association with vascular disease) [14]: 0

N[C@@H](CSCC(=O)O)C(=O)O [CARBOCYSTEINE]
Hepatotoxicity (benign tumour) [1]: 0
Hepatotoxicity (malignant tumour) [2]: 0
Hepatotoxicity (cytolytic) [3]: 0
Hepatotoxicity (choleostasis) [4]: 0
Hepatotoxicity (steatosis) [5]: 0
Hepatotoxicity (granulomatous hepatitis) [6]: 0
Hepatotoxicity (acute) [7]: 0
Hepatotoxicity (chronic liver disease) [8]: 0
Hepatotoxicity (severe hepatitis) [9]: 0
Hepatotoxicity (cirrhosis) [10]: 0
Hepatotoxicity (moderate) [11]: 0.8%
Hepatotoxicity (moderate) [12]: 1
Hepatotoxicity (acute) [13]: 0%
Hepatotoxicity (association with vascular disease) [14]: 0

NC(=O)OC[C@@H]1[C@H](NC(=O)/C(=N\OCC(=O)O)c2csc(N)n2)C(=O)N1S(=O)(=O)O [CARUMONAM]
Hepatotoxicity (benign tumour) [1]: 0
Hepatotoxicity (malignant tumour) [2]: 0
Hepatotoxicity (cytolytic) [3]: 0
Hepatotoxicity (choleostasis) [4]: 0
Hepatotoxicity (steatosis) [5]: 0
Hepatotoxicity (granulomatous hepatitis) [6]: 0
Hepatotoxicity (acute) [7]: 0
Hepatotoxicity (chronic liver disease) [8]: 0
Hepatotoxicity (severe hepatitis) [9]: 0
Hepatotoxicity (cirrhosis) [10]: 0
Hepatotoxicity (moderate) [11]: 22%
Hepatotoxicity (moderate) [12]: 24
Hepatotoxicity (acute) [13]: 0%
Hepatotoxicity (association with vascular disease) [14]: 0

CC[C@H](C)C[C@H](C)CCCCCCCCC(=O)N[C@H]1C[C@@H](O)[C@@H](NCCN)NC(=O)[C@@H]2[C@@H](O)CCN2C(=O)[C@H]([C@H](O)CCN)NC(=O)[C@H]([C@H](O)[C@@H](O)c2ccc(O)cc2)NC(=O)[C@@H]2C[C@@H](O)CN2C(=O)[C@H]([C@@H](C)O)NC1=O [CASPOFUNGIN]
Hepatotoxicity (benign tumour) [1]: 0
Hepatotoxicity (malignant tumour) [2]: 0
Hepatotoxicity (cytolytic) [3]: 0
Hepatotoxicity (choleostasis) [4]: 0
Hepatotoxicity (steatosis) [5]: 0
Hepatotoxicity (granulomatous hepatitis) [6]: 0
Hepatotoxicity (acute) [7]: 1
Hepatotoxicity (chronic liver disease) [8]: 0
Hepatotoxicity (severe hepatitis) [9]: 0
Hepatotoxicity (cirrhosis) [10]: 0
Hepatotoxicity (moderate) [11]: 8.4%
Hepatotoxicity (moderate) [12]: 3
Hepatotoxicity (acute) [13]: 0%
Hepatotoxicity (association with vascular disease) [14]: 0

CCN1CCN(C(=O)N[C@@H](C(=O)N[C@]2(OC)C(=O)N3C(C(=O)O)=C(CSc4nnnn4C)CS[C@@H]32)[C@H](C)O)C(=O)C1=O [CEFBUPERAZONE]
Hepatotoxicity (benign tumour) [1]: 0
Hepatotoxicity (malignant tumour) [2]: 0
Hepatotoxicity (cytolytic) [3]: 0
Hepatotoxicity (choleostasis) [4]: 0
Hepatotoxicity (steatosis) [5]: 0
Hepatotoxicity (granulomatous hepatitis) [6]: 0
Hepatotoxicity (acute) [7]: 0
Hepatotoxicity (chronic liver disease) [8]: 0
Hepatotoxicity (severe hepatitis) [9]: 0
Hepatotoxicity (cirrhosis) [10]: 0
Hepatotoxicity (moderate) [11]: 6.4%
Hepatotoxicity (moderate) [12]: 2
Hepatotoxicity (acute) [13]: 0%
Hepatotoxicity (association with vascular disease) [14]: 0

CO/N=C(\C(=O)N[C@@H]1C(=O)N2C(C(=O)[O-])=C(C[N+]34CCC(C(N)=O)(CC3)CC4)CS[C@H]12)c1nsc(N)n1 [CEFCLIDIN]
Hepatotoxicity (benign tumour) [1]: 0
Hepatotoxicity (malignant tumour) [2]: 0
Hepatotoxicity (cytolytic) [3]: 0
Hepatotoxicity (choleostasis) [4]: 0
Hepatotoxicity (steatosis) [5]: 0
Hepatotoxicity (granulomatous hepatitis) [6]: 0
Hepatotoxicity (acute) [7]: 0
Hepatotoxicity (chronic liver disease) [8]: 0
Hepatotoxicity (severe hepatitis) [9]: 1
Hepatotoxicity (cirrhosis) [10]: 0
Hepatotoxicity (moderate) [11]: 40%
Hepatotoxicity (moderate) [12]: 49
Hepatotoxicity (acute) [13]: 0%
Hepatotoxicity (association with vascular disease) [14]: 0

CO/N=C(\C(=O)N[C@@H]1C(=O)N2C(C(=O)OCOC(=O)C(C)(C)C)=C(/C=C\c3scnc3C)CS[C@H]12)c1csc(N)n1 [CEFDITOREN PIVOXIL]
Hepatotoxicity (benign tumour) [1]: 0
Hepatotoxicity (malignant tumour) [2]: 0
Hepatotoxicity (cytolytic) [3]: 0
Hepatotoxicity (choleostasis) [4]: 0
Hepatotoxicity (steatosis) [5]: 0
Hepatotoxicity (granulomatous hepatitis) [6]: 0
Hepatotoxicity (acute) [7]: 0
Hepatotoxicity (chronic liver disease) [8]: 0
Hepatotoxicity (severe hepatitis) [9]: 0
Hepatotoxicity (cirrhosis) [10]: 0
Hepatotoxicity (moderate) [11]: 37.5%
Hepatotoxicity (moderate) [12]: 41
Hepatotoxicity (acute) [13]: 0%
Hepatotoxicity (association with vascular disease) [14]: 0
